# Experiments:
# [1] = system: lungs of mice after whole thoracic radiation (WTI); experiment: Myeloperoxidase (MPO) staining of lung sections for neutrophil infiltration post-WTI; format: in vivo; conditions: post-WTI 16 Gy; 0.3 mg/kg subcutaneously 1 day before irradiation; FIG. 7C
# Procedure: (§1) FIGS. 7A-C show TPOm-pretreatment (1 day before irradiation at 0.3 mg/kg body weight by subcutaneous injection) on neutrophil infiltration of mice measured at 7 months post-WTI. […] 400× total magnification. […] Data are shown as means±SE. *P<0.05, ***P<0.0001.
# (§2) Methods: C57BL/6 male mice (9-12 weeks old) were administered with the TPOm RWJ-800088 (0.3 mg/kg) or PBS (vehicle) subcutaneously 1 day prior to whole thoracic radiation (WTI) at 16 Gy delivered by x-ray. Mice were sacrificed at 2 weeks and 7 months (n=5/time point/group) post-WTI to collect the lung tissues for various analysis. Groups of mice (n=10/group) exposed to 18 Gy WTI were also subjected to an 8-month survival study.
# At the time of harvest, the right lung was fixed with 10% formalin, then embedded and sectioned at […]. Anti-myeloperoxidase (MPO) antibody was obtained from Abcam (Cambridge, MA, USA). Immunoreactivity was visualized by ImmPACT histochemistry (Vector Labs, Burlingame, CA, USA) with hematoxylin counter staining. For quantitation of MPO+ cells in lung tissue, images were analyzed with ImageJ software (National Institutes of Health); stained cells were counted using the “analyze particles” module to assess positive staining. Data were quantified from 3 fields of 1 section per animal, and 5 animals per group.
# [2] = system: lungs of mice after whole thoracic radiation (WTI); experiment: Senescence marker mRNA expression in lungs (qPCR) post-WTI; format: in vivo, C57BL/6 male mice; conditions: 7 months post-WTI 16 Gy; 0.3 mg/kg subcutaneously 1 day prior to WTI; p<0.05
# Procedure: FIGS. 4A-4C show the effect of TPOm-pretreatment (1 day before irradiation at 0.3 mg/kg body weight by subcutaneous injection) on senescence gene mRNA and protein expression in lungs of mice at 7 months post-WTI. mRNA and protein levels assessed by qPCR and western blot, respectively. […] Data are shown as means±SE. *P <0.05 vs. vehicle treated mice. […] Expression in the naive group is designated as 1 for comparison.
# as §2
# [3] = system: lungs of mice after whole thoracic radiation (WTI); experiment: Collagen deposition in lungs by Trichrome Blue staining post-WTI; format: in vivo, C57BL/6 male mice; conditions: 7 months post-WTI 16 Gy; 0.3 mg/kg subcutaneously 1 day prior to WTI; p<0.05
# Procedure: FIGS. 3A-3B show the effect of TPOm-pretreatment (1 day before irradiation at 0.3 mg/kg body weight by subcutaneous injection) on collagen deposition in lungs of mice at 7 months post-WTI. […] 200× total magnification.
# as §2
# [4] = system: lungs of mice after whole thoracic radiation (WTI); experiment: H&E staining of lung sections for cellularity and immune infiltration post-WTI; format: in vivo, C57BL/6 male mice; conditions: 2 weeks post-WTI 16 Gy; 0.3 mg/kg subcutaneously 1 day prior to WTI
# Procedure: (§3) FIGS. 2A-2B show the effect of TPOm-pretreatment (1 day before irradiation at 0.3 mg/kg body weight by subcutaneous injection) on immune cell infiltration and permeability in the lungs of mice at 14 days post-WTI. […] 200× total magnification.
# as §2
# [5] = system: lungs of mice after whole thoracic radiation (WTI); experiment: Pulmonary density by microCT post-WTI; format: in vivo, C57BL/6 male mice; conditions: 7 months post-WTI 16 Gy; 0.3 mg/kg subcutaneously 1 day prior to WTI; p<0.05
# Procedure: FIGS. 5A-5C show the effect of TPOm-pretreatment (1 day before irradiation at 0.3 mg/kg body weight by subcutaneous injection) on pulmonary density of mice at 7 months post-WTI. Pulmonary density imaged by microCT and measured by microCT analysis software. […] (n=3 for Naïve, n=5 for vehicle and n=4 for TPOm pretreatment). *P <0.05 vs. vehicle treated mice.
# as §2
# [6] = system: lungs of mice after whole thoracic radiation (WTI); experiment: Protein in bronchoalveolar lavage by bicinchoninic acid assay (BCA) post-WTI; format: in vivo, C57BL/6 male mice; conditions: 2 weeks post-WTI 16 Gy; 0.3 mg/kg subcutaneously 1 day prior to WTI; p<0.05
# Procedure: as §3, §2
# [7] = system: lungs of mice after whole thoracic radiation (WTI); experiment: KC protein in whole lung lysate by ELISA post-WTI; format: in vivo; conditions: post-WTI 16 Gy; 0.3 mg/kg subcutaneously 1 day before irradiation; FIG. 7A
# Procedure: as §1, §2
# Methods: Mice were treated as described in Example 1. Whole lung lysate was prepared from left lung tissue at the time of harvest. KC ELISA kit (R&D Systems, #DY453) was used according to manufacturer's instructions. For each sample, 2 replicates were measured for KC protein.
# [8] = system: lungs of mice after whole thoracic radiation (WTI); experiment: Proinflammatory chemokine mRNA expression in lungs after whole thoracic radiation (WTI) 16 Gy; format: in vivo, C57BL/6 male mice; conditions: 2 weeks post-WTI 16 Gy; 0.3 mg/kg subcutaneously 1 day prior to WTI; p<0.05
# Procedure: Lung data is presented as fold change of chemokine expression normalized to Hprt1 expression (n=5 for Naïve, n=5 for Vehicle (phosphate buffered saline) and TPOm pretreatment). Expression in the naive group is designated as 1 for comparison. Data are shown as means±SE. *P<0.05 vs. vehicle treated mice.
# as §2
# [9] = system: mice exposed to 18 Gy WTI; experiment: 8-month survival study after 18 Gy WTI; format: in vivo, C57BL/6 male mice
# Procedure: Mice were given a vehicle or TPOm injection (1 mg/kg), 1 day before irradiation (1×) or 1 day before irradiation and 7 days after radiation (2×) (n=10 for irradiated groups, n=5 for naïve). *P<0.05 vs. vehicle treated mice.
# as §2
substance,measurement,setting,value
methoxypolyethyleneglycol20000-propionyl-L-Isoleucyl-L-Glutamyl-Glycyl-L-Prolyl-L-Threonyl-L-Leucyl-L-Arginyl-L-Glutaminyl-L-2-Naphthylalanyl-L-Leucyl-L-Alanyl-L-Alanyl-L-Arginyl-Sarcosyl-Ne-(methoxypolyethyleneglycol20000-propionyl-L-Isoleucyl-L-Glutamyl-Glycyl-L-Prolyl-L-Threonyl-L-Leucyl-L-Arginyl-L-Glutaminyl-L-2-Naphthylalanyl-L-Leucyl-L-Alanyl-L-Alanyl-L-Arginyl-Sarcosyl-)-Lysinamide [TPOm],alveolar neutrophil accumulation (MPO staining),[1],alveolar neutrophil accumulation in significantly greater numbers than mice treated with TPOm
same,"mRNA levels of senescence marker p21, lower than vehicle",[2],52%
same,"collagen deposition, lower than vehicle (Trichrome Blue staining)",[3],31%
same,cellularity by H&E staining,[4],higher cellularity in vehicle compared to TPOm treated mice
same,"density in lungs by microCT, less than vehicle",[5],21%
same,"protein leaked to bronchoalveolar lavage fluid, less than vehicle",[6],28%
same,protein expression of KC in the lung (ELISA),[7],significantly reduced in the TPOm (RWJ-800088) group to a level similar to naïve
same,"mRNA expression of proinflammatory chemokine KC in lungs, lower than vehicle",[8],37%
same,"mRNA expression of proinflammatory chemokine MCP1 in lungs, lower than vehicle",[8],39%
same,survival,"[9]; vehicle 0%, p<0.01",40%
same,mortality,[9]; vs vehicle,significantly delayed in mortality

# Reference: US20250312417A1, “Methods for Mitigating Lung Injury in Conjunction with Exposure to Radiation and/or Radiation or Radiomimetic Treatments” (Janssen Pharmaceutica NV, priority 2022, published 2025)
